Source: patent publication US6890708B2, “Method for improving the quality of sperm for artificial insemination of animals” (priority 2000, dated 2005)

Experiments:
Assay type in all cases: cell-based, pig
boar spermatozoa [1] = assay: Sperm viability in vitro (motility, acrosome morphology), Example I; details: Exp. 1
Experimental: Aliquots of 80 μl of the PMN suspension (see, PMN isolation and preparation of PMNs) in TM or TM-s, with either intact or inactivated complement, were transferred to a 96-well polystyrene microtest plate. To each well, 20 μl of sperm suspension (see, preparation of semen samples) was added and the microtest plate was placed in a humidified incubator at 38° C. with 5% CO2 in air. […] The samples were incubated with gentle swirling on a test plate shaker. After 15, 30, 45, 60 or 90 min., samples were quantitatively transferred into tubes containing an equal volume of 40 mg ml^−1 heparin (Sigma) in PBS. The heparin facilitates dissociation of agglutinated PMNs. The samples were thoroughly mixed, left for 15 min., and mixed again. Subsamples of 75 μl were fixed by addition of 25 μl of 2% (v/v) glutaraldehyde (Fluka, Brunschwig chemie, Amsterdam, The Netherlands) in PBS. “Blank” samples, i.e., sperm without PMNs (80 μl TM-s mixed with 20 μl sperm suspension), were incubated in parallel to monitor sperm survival during the treatment. “Reference” samples, i.e., frozen-thawed (killed) semen, were incubated in parallel with the PMNs as a reference for the phagocytotic activity of the PMNs. The frozen-thawed semen was taken from a large stock of semen from one ejaculate and washed 3 times in PBS prior to use.
For evaluation of phagocytosis, wet mounts of the fixed samples were examined with a combination of phase-contrast and fluorescence microscopy (Olympus BH2, Tokyo, Japan) at 400× magnification. The mounts enabled observation and counting of fluorescently labeled spermatozoa inside and outside the phagocytes. By focusing at different levels in the mount, spermatozoa that were located above or below the PMN could be distinguished from those that were phagocytosed. […] Two hundred spermatozoa were evaluated and classified as inside or outside the PMN (i.e., phagocytosed or not phagocytosed). The same fixed mounts were used to assess the acrosome morphology of the non-phagocytosed spermatozoa at the moment of fixation. One hundred cells were classified using phase-contrast microscopy at 400× magnification, as NAR (normal apical ridge), NAR' (slightly altered normal apical ridge), DAR (damaged apical ridge), MAR (missing apical ridge) and LAC (loose acrosomal cap), as described by Pursel et al. (Pursel V G, Schulman L L and Johnson L A, 1978, Distribution and morphology of fresh and frozen-thawed sperm in the reproductive tract of gilts after insemination Biology of Reproduction 19 69-76.)

[2] = system: Polymorphonuclear Neutrophils (PMN); assay: In vitro phagocytosis of boar sperm by PMN (phagocytosis assay); details: for % of phagocytosed sperm: Exp. 1, preincubated 30 min. at 38° C.
Experimental: Tyrode's medium was used as described as “standard Tyrode's medium” in […] et al. ([…], Harrison, R A P, Miller, N G A, Topper, E K, and Woelders, H, 1998, Enhanced Binding of Zona Pellucida Proteins to the Acrosomal Region of Intact Boar Spermatozoa in Response to Fertilizing Conditions: A Flow Cytometric Study. […] Serum was prepared from blood collected from 11 primiparous sows, pooled, and frozen in aliquots at -80° C. Per experiment, 20 ml peripheral blood of a single Dutch Landrace sow (each experiment a different sow) was collected in heparinized vacutainers (Venoject, Omnilabo, Breda, The Netherlands). The peripheral blood was subsequently diluted with an equal volume of phosphate buffered saline (PBS). […] The supernatant, including the mononuclear cells at the interface, was removed. The pellet was resuspended in 2 ml of ice-cold distilled water to lyse the erythrocytes. […] The PMNs were pelleted by centrifugation for 10 min at 400×g and the lysis procedure was repeated. […] All cell suspensions were pooled together, mixed well, and subjected to centrifugation. The PMN were resuspended in TM-s with inactivated complement, and the cell concentration was determined using a hemocytometer. The PMN preparation was stored overnight at 4° C. […] The viability, assessed by trypan blue exclusion, was >98%. Semen was obtained from Dutch A.I. stations. Per experiment, semen was used from a single Yorkshire breeding boar (each experiment a different boar). At the AI-station, the semen was diluted to a concentration of approximately 30×10^6 cells/ml in Beltsville Thawing Solution (BTS) (Johnson et al., 1988). The diluted semen was stored at 17° C. for up to 48 hours, until the diluted semen sample was used. […] Aliquots of 80 μl of the PMN suspension (see, PMN isolation and preparation of PMNs) in TM or TM-s, with either intact or inactivated complement, were transferred to a 96-well polystyrene microtest plate. […] The samples were incubated with gentle swirling on a test plate shaker. […] The heparin facilitates dissociation of agglutinated PMNs. The samples were thoroughly mixed, left for 15 min., and mixed again. […] The frozen-thawed semen was taken from a large stock of semen from one ejaculate and washed 3 times in PBS prior to use. […] The mounts enabled observation and counting of fluorescently labeled spermatozoa inside and outside the phagocytes. By focusing at different levels in the mount, spermatozoa that were located above or below the PMN could be distinguished from those that were phagocytosed. In many PMNs that had ingested a spermatozoon, the presence of the sperm nucleus or tail caused a conspicuous change of the shape of the PMN. Two hundred spermatozoa were evaluated and classified as inside or outside the PMN (i.e., phagocytosed or not phagocytosed). The same fixed mounts were used to assess the acrosome morphology of the non-phagocytosed spermatozoa at the moment of fixation.

boar spermatozoa [3] = assay: Sperm viability in vitro (motility, acrosome morphology), Example I; details: Exp. 1; after adding active compound and pre-incubation 30 min. at 38° C.
[4] = after adding active compound and pre-incubation 30 min. at 38° C.
[5] = blank samples without PMN, (2x), phagocytosis time 30 min.
[6] = blank samples without PMN, preincubated 30 min. at 38° C., phagocytosis time 30 min.

CCCC(=O)Nc1ncnc2c1ncn2[C@@H]1O[C@@H]2COP(=O)(O)O[C@H]2[C@H]1OC(=O)CCC [Db-cAMP, dibutyryl-cAMP]
% DAR (boar spermatozoa [1]; [4]): 23% | % LAC (boar spermatozoa [1]; [4]): 08% | % MAR (boar spermatozoa [1]; [4]): 02% | % NAR (boar spermatozoa [1]; [4]): 67% | % LAC (boar spermatozoa [1]; [5]): 08% | % MAR (second value of NAR-MAR-MAR-LAC) (boar spermatozoa [1]; [5]): 36% | % MAR (third value of NAR-MAR-MAR-LAC) (boar spermatozoa [1]; [5]): 02% | % NAR (boar spermatozoa [1]; [5]): 54% | % LAC (boar spermatozoa [1]; [6]): 06% | % MAR (second value of NAR-MAR-MAR-LAC) (boar spermatozoa [1]; [6]): 36% | % MAR (third value of NAR-MAR-MAR-LAC) (boar spermatozoa [1]; [6]): 02% | % NAR (boar spermatozoa [1]; [6]): 56% | % of phagocytosed sperm ([2]; 0.1 mM, phagocytosis time 15 min): 35% | % of phagocytosed sperm ([2]; 0.1 mM, phagocytosis time 30 min): 59% | % of phagocytosed sperm ([2]; 0.1 mM, phagocytosis time 60 min): 60% | % of phagocytosed sperm ([2]; 0.1 mM, phagocytosis time 90 min): 65% | % of phagocytosed sperm ([2]; 0.2 mM, phagocytosis time 15 min): 47% | % of phagocytosed sperm ([2]; 0.2 mM, phagocytosis time 30 min): 47% | % of phagocytosed sperm ([2]; 0.2 mM, phagocytosis time 60 min): 58% | % of phagocytosed sperm ([2]; 0.2 mM, phagocytosis time 90 min): 54% | % motile sperm (boar spermatozoa [3]): 60%

O=C(O)CN(CCN(CC(=O)O)CC(=O)O)CC(=O)O [EDTA]
phagocytosis of sperm by PMN in vitro, in words [2]: reduce phagocytosis of sperm in vitro

Nc1ncnc2c1ncn2[C@@H]1O[C@@H]2COP(=O)(O)O[C@H]2[C@H]1O [cAMP, cyclic Adenosine MonoPhosphate]
phagocytosis of sperm by PMN in vitro, in words [2]: inhibits the phagocytosis of sperm in vitro

heparin
phagocytosis of sperm by PMN in vitro, in words [2]: inhibited strongly
